Molecules are shown by their SMILES.

The subject of data set [1] is P. aeruginosa pyocyanin production. Put plainly: Pyocyanin assay. Type of data set: cell-based. As to conditions: Pseudomonas aeruginosa, PA14, 16 h, read-out: IC50-value towards pyocyanin production, PA14 in PPGAS medium, 16 h. How it is done: Inhibition of P. aeruginosa pyocyanin production by compounds was determined photometrically as described before. In short, an overnight culture of PA14 in PPGAS medium was washed, diluted in medium to a start OD600 of 0.02, and incubated for 16 h (37° C., 200 rpm, relative humidity 75%) in the presence of test compounds. Then, cultures were extracted with chloroform and re-extracted with 0.2 M HCl. Protonated red colored pyocyanin was determined by measuring OD520 and normalizing to OD600.

Data set [2] is described as follows: Kinetic Turbidimetric Aqueous Solubility. The class given is physicochemical. To be noted: aqueous buffer, kinetic from dmso stock, PBS buffer, room temperature. The procedure:
Kinetic Turbidimetric Aqueous Solubility at room temperature for 5 min. Test compound was diluted in PBS buffer to give a range of concentrations (typically 0.4, 2, 4, 20, 40, 100, and 200 μM, final DMSO concentration 2%) and incubated at room temperature for 5 min. Absorbance was measured at a wavelength of 620 nm and the solubility was estimated from the concentration of test compound that produces an increase in absorbance above the vehicle control (i.e., […]). Data was analyzed by fitting a four parameter sigmoidal function to the measured and normalized absorbances and AUC calculation providing access to Log S (decadic logarithm of the solubility).

The next data set deals with T1, PqsR (Pseudomonas aeruginosa, UniProt Q9I4X0).
T1 construct: expressed in transfected cells; host or cells: Escherichia coli DH5a carrying pEAL08-2
T1 sequence (Q9I4X0 whole entry): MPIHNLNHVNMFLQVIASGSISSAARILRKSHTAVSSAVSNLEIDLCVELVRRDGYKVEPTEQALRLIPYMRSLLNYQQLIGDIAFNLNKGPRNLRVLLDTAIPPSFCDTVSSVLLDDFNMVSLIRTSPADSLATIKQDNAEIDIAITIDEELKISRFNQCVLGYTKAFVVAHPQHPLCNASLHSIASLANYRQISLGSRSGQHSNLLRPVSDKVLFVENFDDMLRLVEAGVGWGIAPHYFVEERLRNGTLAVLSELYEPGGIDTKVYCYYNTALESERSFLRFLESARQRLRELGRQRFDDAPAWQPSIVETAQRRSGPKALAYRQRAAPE
In words: PqsR inverse agonistic activity, reporter gene assay in E. coli. Type of data set: cell-based. How it is done: Inhibition of pqsR-dependent gene expression of test compounds was determined in an E. coli based-galactosidase reporter gene assay. Escherichia coli DH5a was transfected with pEAL08-2 plasmid encoding pqsR under control of promoter tac and β-galactosidase reporter gene lacZ under control of promoter pqsA. Antagonistic effects of compounds were evaluated in the presence of/in competition to 50 nM PQS. A positive control was used to ensure the reliability of individual assays. First, PQS was diluted in methanol and added to the wells of a glass coated 96-deep-well plate, and the solvent was evaporated. Then, compounds were added in 5 μL DMSO to final concentrations of 0.001-10 μM. Overnight cultures of E. coli DH5a×pEAL08-2 were diluted 1:100 in LB medium with ampicillin (50 μg/ml) and incubated at 37° C. with shaking until it reached an OD600 of 0.2. Finally, 995 μL of culture was added to each well and the β-galactosidase activity was determined by ortho-nitrophenyl-β-galactoside conversion in permeabilized cells after a 2.5 h incubation period (37° C., 180 rpm). OD600, OD420, and OD550 were measured using POLARstar Omega (BMG Labtech, Ortenberg, Germany), and the activity was expressed as ratio of the slope of B-galactosidase activity between basal control (no PQS) and solvent control. IC50 values of antagonists were determined by variation of the concentration of the test compounds.

On to `Cc1ccccc1Nc1ccc2[nH]c(CSc3ccnc(C(F)(F)F)c3)nc2c1` [Compound 29], for which the IC50 in data set [1] was 101 to 200 nM.

On to `Fc1ccccc1Nc1ccc(-n2cc(CNc3ccnc(C(F)(F)F)c3)nn2)cc1` [Compound 01], for which the solubility at 5 min in data set [2] was over 50 µM. Also, the IC50 was 201 to 500 nM in data set [1] and at most 50 nM on PqsR.

`FC(F)(F)c1cc(SCc2nc3cc(Nc4cccnc4)ccc3[nH]2)ccn1` [Compound 19] registered a solubility at 5 min in data set [2] of at least 100 µM. In addition, the IC50 in data set [1] was 501 to 1000 nM.

For the compound `Fc1c(Nc2ccc3[nH]c(CSc4ccnc(C(F)(F)F)c4)nc3c2)cccc1C(F)(F)F` [Compound 48], in data set [1], the IC50 lay in the range of 101 to 200 nM.

In data set [2], `Nc1cc(SCc2nc3cc(Nc4cccc(F)c4)ccc3[nH]2)cc(C(F)(F)F)n1` [Compound 24] showed a solubility at 5 min of over 10 µM. For the same compound, the IC50 in data set [1] was at most 100 nM.

The compound `Cc1cc(Nc2ccccc2)cc2nc(CSc3ccnc(C(F)(F)F)c3)[nH]c12` [Compound 59] showed a solubility at 5 min in data set [2] of over 10 µM. The 50% inhibitory concentration (IC50) in data set [1] was 101 to 200 nM; at PqsR, at most 50 nM.

`Nc1cc(SCc2nc3cc(Nc4ccccc4)ccc3[nH]2)nc(C(F)(F)F)n1` [Compound 14]: in data set [2], the solubility at 5 min was over 25 µM. Also, the results for the IC50 (in data set [1]; on PqsR) were 101 to 200 nM and at most 50 nM, respectively.

For `Fc1cccc(Nc2ccc3[nH]c(CNc4ccnc(C(F)(F)F)c4)nc3c2)c1` [Compound 61], in data set [2], the solubility at 5 min was at least 100 µM. Besides, the IC50 is at most 100 nM in data set [1] and at most 50 nM at PqsR.

In data set [2], `COc1ccc(Nc2ccc3[nH]c(CSc4ccnc(C(F)(F)F)c4)nc3c2)cc1` [Compound 34] yielded a solubility at 5 min of over 25 µM. Moreover, the IC50 on PqsR is 51 to 250 nM.

As to `Fc1ccc(F)c(Nc2ccc3[nH]c(CSc4ccnc(C(F)(F)F)c4)nc3c2)c1` [Compound 44], the solubility at 5 min in data set [2] was over 25 µM.

As for `Fc1ccc(Nc2cccc(-n3cc(CNc4ccnc(C(F)(F)F)c4)nn3)c2)cc1` [Compound 05], the solubility at 5 min in data set [2] is over 25 µM. Besides, the IC50 in data set [1] is 201 to 500 nM; on PqsR it was at most 50 nM.

`COc1cc(F)cc(Nc2ccc3[nH]c(CSc4ccnc(C(F)(F)F)c4)nc3c2)c1` [Compound 54]: the solubility at 5 min in data set [2] is over 25 µM. In addition, the IC50 in data set [1] is 201 to 500 nM.

Regarding `Fc1cccc(Nc2cc(F)c3[nH]c(CSc4ccnc(C(F)(F)F)c4)nc3c2)c1` [Compound 57], the solubility at 5 min in data set [2] was over 10 µM. In data set [1], the concentration for half-maximal inhibition (IC50) is at most 100 nM.

`Fc1cccc(Nc2ccc3[nH]c(COc4ccnc(C(F)(F)F)c4)nc3c2)c1` [Compound 64] yielded a solubility at 5 min in data set [2] of over 25 µM. In data set [1], the IC50 was in the range of 201 to 500 nM.

`Fc1cccc(Nc2ccc3[nH]c(CSc4ccnc(C(F)(F)F)c4)nc3c2)c1` [Compound 23] came in with a solubility at 5 min in data set [2] of over 10 µM. Further, the IC50 in data set [1] was at most 100 nM.

In data set [2], `Cc1ccc(Nc2ccc3[nH]c(CSc4ccnc(C(F)(F)F)c4)nc3c2)nc1` [Compound 40] returned a solubility at 5 min of over 25 µM.

In the case of `Fc1cc(C(F)(F)F)ccc1Nc1ccc2[nH]c(CSc3ccnc(C(F)(F)F)c3)nc2c1` [Compound 49], the solubility at 5 min in data set [2] is over 25 µM. Further, the IC50 in data set [1] is 101 to 200 nM.

With `FC(F)(F)c1cc(SCc2nc3ccc(Nc4ccccc4)cc3o2)ccn1` [Compound 15], the IC50 lay within 201 to 500 nM in data set [1] and 51 to 250 nM at PqsR.

`FC(F)(F)c1cc(SCc2nc3cc(Nc4ccccn4)ccc3[nH]2)ccn1` [Compound 18]: the solubility at 5 min in data set [2] was over 50 µM. Moreover, in data set [1], the IC50 was 201 to 500 nM.

For the compound `FC(F)(F)c1cc(SCc2nc3cc(NC4CCCCC4)ccc3[nH]2)ccn1` [Compound 17], the figures for the IC50 (in data set [1]; at PqsR) were 501 to 1000 nM and 51 to 250 nM, respectively.

In data set [2], `COc1ccc(Nc2ccc3[nH]c(CSc4ccnc(C(F)(F)F)c4)nc3c2)cc1F` [Compound 53] had a solubility at 5 min of over 25 µM.

Turning to `Fc1cc(Nc2cccnc2)cc2nc(CSc3ccnc(C(F)(F)F)c3)[nH]c12` [Compound 58], the solubility at 5 min in data set [2] is over 50 µM. In data set [1], the IC50 was in the range of 201 to 500 nM.

For `Nc1cc(SCc2nc3cc(Nc4cccnc4)ccc3[nH]2)cc(C(F)(F)F)n1` [Compound 20], the solubility at 5 min in data set [2] is over 25 µM. Further, the IC50 in data set [1] lay within 201 to 500 nM.

Turning to `FC(F)(F)c1cc(OCc2nc3cc(Nc4ccccc4Cl)ccc3[nH]2)ccn1` [Compound 65], the IC50 in data set [1] was 201 to 500 nM.

On to `Fc1ccc(C(F)(F)F)cc1Nc1ccc2[nH]c(CSc3ccnc(C(F)(F)F)c3)nc2c1` [Compound 50], for which, in data set [1], the IC50 was in the range of 201 to 500 nM.

Regarding `FC(F)(F)c1cc(NCc2nc3cc(Nc4ccccc4)ccc3[nH]2)ccn1` [Compound 60], in data set [2], the solubility at 5 min was at least 100 µM. Further, in data set [1], the IC50 was in the range of 201 to 500 nM.

In data set [2], `Fc1cncc(Nc2ccc3[nH]c(CSc4ccnc(C(F)(F)F)c4)nc3c2)c1` [Compound 41] showed a solubility at 5 min of over 50 µM. In addition, the IC50 in data set [1] was in the range of 201 to 500 nM.

In turn, `Fc1ccc(F)c(Nc2cccc(-n3cc(CNc4ccnc(C(F)(F)F)c4)nn3)c2)c1` [Compound 06] gave a solubility at 5 min in data set [2] of over 10 µM. Moreover, the IC50 in data set [1] lay within 101 to 200 nM.

Compound `Fc1ccc(Nc2ccc3[nH]c(CSc4ccnc(C(F)(F)F)c4)nc3c2)cc1F` [Compound 47] returned a solubility at 5 min in data set [2] of over 10 µM. Moreover, the IC50 in data set [1] is at most 100 nM.

Compound `Nc1cc(-c2ncc(CNc3cc(Cl)nc(C(F)(F)F)c3)cn2)ccc1Cl` [Compound 11] registered a solubility at 5 min in data set [2] of over 25 µM. Besides, the IC50 in data set [1] lay within 501 to 1000 nM.

As to `Fc1ccccc1Nc1ccc2[nH]c(COc3ccnc(C(F)(F)F)c3)nc2c1` [Compound 63], in data set [2], the solubility at 5 min is over 10 µM.

Take `Cc1ccc(Nc2ccc3[nH]c(CSc4ccnc(C(F)(F)F)c4)nc3c2)cc1` [Compound 31]: the solubility at 5 min in data set [2] is over 10 µM. Moreover, the IC50 in data set [1] was 101 to 200 nM.

Consider `Fc1ccc(F)c(Nc2cccc(-n3cc(CNc4cc(Cl)nc(C(F)(F)F)c4)nn3)c2)c1` [Compound 07], for which, in data set [2], the solubility at 5 min is over 25 µM. In addition, in data set [1], the IC50 was 101 to 200 nM.

With `FC(F)(F)c1cc(SCc2nc3cc(Nc4ccccc4Cl)ccc3[nH]2)ccn1` [Compound 27], in data set [1], the IC50 was at most 100 nM.

The compound `Fc1ccc(Nc2ccc3[nH]c(CSc4ccnc(C(F)(F)F)c4)nc3c2)cc1` [Compound 26] displayed a solubility at 5 min in data set [2] of over 25 µM.

In the case of `Nc1cc(SCc2nc3cc(Nc4ccccc4)ccc3[nH]2)cc(C(F)(F)F)n1` [Compound 13], the solubility at 5 min in data set [2] is over 10 µM. The IC50 in data set [1] was 101 to 200 nM.

In the case of `Cc1ccc(Nc2ccc3[nH]c(CSc4ccnc(C(F)(F)F)c4)nc3c2)cc1F` [Compound 51], in data set [1], the IC50 is at most 100 nM.

`COc1cccc(Nc2ccc3[nH]c(CSc4ccnc(C(F)(F)F)c4)nc3c2)c1` [Compound 33] yielded a solubility at 5 min in data set [2] of over 10 µM. For the same compound, the IC50 in data set [1] lay in the range of 101 to 200 nM.

Turning to `FC(F)(F)Oc1ccccc1Nc1ccc2[nH]c(CSc3ccnc(C(F)(F)F)c3)nc2c1` [Compound 38], the IC50 in data set [1] lay in the range of 201 to 500 nM.

For `FC(F)(F)c1cc(SCc2nc3cc(Nc4cccc(Cl)c4)ccc3[nH]2)ccn1` [Compound 28], the solubility at 5 min in data set [2] is over 10 µM.

In data set [2], `Cc1cccc(Nc2ccc3[nH]c(CSc4ccnc(C(F)(F)F)c4)nc3c2)c1` [Compound 30] came in with a solubility at 5 min of over 10 µM. Besides, the IC50 in data set [1] lay within 101 to 200 nM.

As for `Fc1cc(F)cc(Nc2ccc3[nH]c(CSc4ccnc(C(F)(F)F)c4)nc3c2)c1` [Compound 43], the solubility at 5 min in data set [2] was over 25 µM.

For `Cc1c(F)cc(Nc2ccc3[nH]c(CSc4ccnc(C(F)(F)F)c4)nc3c2)cc1F` [Compound 55], the solubility at 5 min in data set [2] is over 10 µM. For the same compound, the IC50 in data set [1] fell in the range of 101 to 200 nM.

As for `Fc1ccccc1Nc1ccc2[nH]c(CSc3ccnc(C(F)(F)F)c3)nc2c1` [Compound 22], in data set [2], the solubility at 5 min was over 25 µM.

In data set [2], `Nc1cccc(-c2ncc(CNc3cc(Cl)nc(C(F)(F)F)c3)cn2)c1` [Compound 10] returned a solubility at 5 min of at least 100 µM. Further, the IC50 in data set [1] was 501 to 1000 nM.

Compound `NC(=O)c1ccccc1Nc1ccc2[nH]c(CSc3ccnc(C(F)(F)F)c3)nc2c1` [Compound 35] returned a solubility at 5 min in data set [2] of over 50 µM. For the same compound, the IC50 in data set [1] lay in the range of 101 to 200 nM.

`Fc1cccc(Nc2cccc(-n3cc(CNc4ccnc(C(F)(F)F)c4)nn3)c2)c1` [Compound 03]: the solubility at 5 min in data set [2] is over 10 µM. Further, the IC50 in data set [1] was 101 to 200 nM.

As for `FC(F)(F)c1cc(SCc2nc3ccc(Nc4ccccc4)cc3s2)ccn1` [Compound 16], the values for the IC50 (in data set [1]; on PqsR) were 501 to 1000 nM and 51 to 250 nM, respectively.

The record behind these values is patent US12528783B2, “PqsR inverse agonists” (priority 2020, dated 2026).
